In ChEMBL document CHEMBL1212723, “Bioactivity-guided mapping and navigation of chemical space” (Nat Chem Biol, 2009):
Active and inactive are the calls of the source. No cut-off for these calls is given here.

Assays:
[1] = biological target: T1, Polyunsaturated fatty acid 5-lipoxygenase (Homo sapiens, UniProt P09917); assay: Inhibition of LOX5 in human whole blood assessed as inhibition of conversion of arachidonic acid to leukotriene; format: tissue-based
T1 sequence (P09917 whole entry): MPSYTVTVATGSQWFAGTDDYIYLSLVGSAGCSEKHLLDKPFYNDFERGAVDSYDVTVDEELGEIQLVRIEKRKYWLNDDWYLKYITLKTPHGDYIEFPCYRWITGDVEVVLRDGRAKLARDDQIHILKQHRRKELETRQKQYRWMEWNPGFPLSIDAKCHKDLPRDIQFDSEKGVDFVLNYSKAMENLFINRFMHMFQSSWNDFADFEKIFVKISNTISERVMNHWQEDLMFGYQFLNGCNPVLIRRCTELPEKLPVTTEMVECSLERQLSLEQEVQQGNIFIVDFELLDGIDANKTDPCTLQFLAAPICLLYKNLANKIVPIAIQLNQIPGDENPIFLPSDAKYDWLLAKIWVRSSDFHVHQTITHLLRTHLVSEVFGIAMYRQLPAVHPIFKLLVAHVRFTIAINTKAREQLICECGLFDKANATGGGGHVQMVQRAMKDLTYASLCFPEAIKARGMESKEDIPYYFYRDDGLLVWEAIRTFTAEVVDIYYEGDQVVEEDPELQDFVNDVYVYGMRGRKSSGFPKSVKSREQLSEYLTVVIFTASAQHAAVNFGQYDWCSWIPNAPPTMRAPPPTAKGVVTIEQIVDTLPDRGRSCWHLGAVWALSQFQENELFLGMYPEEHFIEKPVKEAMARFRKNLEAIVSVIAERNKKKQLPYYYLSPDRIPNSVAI

Estrogen receptor beta [2] = biological target: T2, Estrogen receptor beta (Homo sapiens, UniProt Q92731); assay: Antagonist activity at human ERbeta ligand binding domain expressed in Escherichia coli BL21(DE3) cells assessed as inhibition of coactivator 53-protein binding by fluorescence assay
T2 sequence (Q92731 whole entry, the tested form may be a part): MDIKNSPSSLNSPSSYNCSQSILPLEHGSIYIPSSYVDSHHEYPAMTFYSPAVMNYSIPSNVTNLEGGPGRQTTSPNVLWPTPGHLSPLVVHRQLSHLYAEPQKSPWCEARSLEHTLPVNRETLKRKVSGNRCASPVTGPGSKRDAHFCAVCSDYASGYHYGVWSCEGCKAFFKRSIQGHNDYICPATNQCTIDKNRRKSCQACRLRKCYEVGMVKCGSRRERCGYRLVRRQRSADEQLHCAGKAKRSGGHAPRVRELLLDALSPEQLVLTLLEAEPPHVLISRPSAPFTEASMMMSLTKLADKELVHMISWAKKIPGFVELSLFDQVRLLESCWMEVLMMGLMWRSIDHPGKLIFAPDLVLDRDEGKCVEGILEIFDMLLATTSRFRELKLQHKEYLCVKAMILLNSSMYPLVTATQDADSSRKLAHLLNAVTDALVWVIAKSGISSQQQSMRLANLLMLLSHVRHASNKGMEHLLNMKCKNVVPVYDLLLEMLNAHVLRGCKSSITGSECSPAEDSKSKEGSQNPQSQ

Estrogen receptor beta [3] = biological target: T2, Estrogen receptor beta; assay: Binding affinity to human ERbeta ligand binding domain expressed in Escherichia coli BL21(DE3) cells assessed as recruitment of fluorescently labeled nuclear coactivator Scr1 after 1 hr by fluorescence polarization assay
Estrogen receptor beta [4] = biological target: T2, Estrogen receptor beta; assay: Agonist activity at human ERbeta ligand binding domain expressed in Escherichia coli BL21(DE3) cells assessed as induction of coactivator 53-protein binding by fluorescence assay
Estrogen receptor [5] = biological target: T3, Estrogen receptor (Homo sapiens, UniProt P03372)
T3 sequence (P03372 whole entry): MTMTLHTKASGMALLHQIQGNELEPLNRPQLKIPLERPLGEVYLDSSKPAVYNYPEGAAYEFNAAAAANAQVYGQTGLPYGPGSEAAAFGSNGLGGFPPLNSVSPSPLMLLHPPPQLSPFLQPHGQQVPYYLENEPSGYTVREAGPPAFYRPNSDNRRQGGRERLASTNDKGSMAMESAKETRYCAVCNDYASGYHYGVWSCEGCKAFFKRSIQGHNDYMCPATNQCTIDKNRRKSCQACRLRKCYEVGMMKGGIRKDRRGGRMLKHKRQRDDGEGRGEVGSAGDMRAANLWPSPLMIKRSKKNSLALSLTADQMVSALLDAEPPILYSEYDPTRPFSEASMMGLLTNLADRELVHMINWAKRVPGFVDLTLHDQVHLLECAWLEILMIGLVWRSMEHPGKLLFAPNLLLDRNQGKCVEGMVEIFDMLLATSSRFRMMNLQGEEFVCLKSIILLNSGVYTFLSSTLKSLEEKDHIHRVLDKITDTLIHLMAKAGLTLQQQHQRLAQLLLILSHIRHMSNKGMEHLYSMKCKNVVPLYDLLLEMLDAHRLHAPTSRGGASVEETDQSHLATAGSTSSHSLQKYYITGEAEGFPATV

Estrogen receptor [6] = biological target: T3, Estrogen receptor; assay: biochemical
Description: Binding affinity to human ERalpha ligand binding domain expressed in Escherichia coli BL21(DE3) cells assessed as recruitment of fluorescently labeled nuclear coactivator Scr1 after 1 hr by fluorescence polarization assay

Row | SMILES | IC50 [1] | inhibition (Estrogen receptor beta [2]) | other results
1 | CN(C)CCNC(=O)c1ccc(COc2ccc3ccccc3c2)cc1 | 3 µM |  | 
2 | O=C(N1CCc2cc(O)ccc2[C@H]1c1ccc(OCCN2CCCC2)cc1)C(F)(F)F |  | Active | 
3 | O=S(=O)(c1ccc2ccccc2c1)N1CCc2cc(O)ccc2[C@H]1c1ccc(OCCN2CCCC2)cc1 |  | Active | 
4 | O=C(N1CCc2cc(O)ccc2C1)C(F)(F)F |  |  | EC50 (Estrogen receptor beta [3]): 4.6 µM; Activity (Estrogen receptor beta [4]): Active; Ki (Estrogen receptor [5]): 0.002 µM; EC50 (Estrogen receptor [6]): 0.275 µM
5 | c1ccc(COc2ccc3ccccc3c2)cc1 | 9.5 µM |  | 
6 | O=S(=O)(c1ccccc1)N1CCc2cc(O)ccc2[C@H]1c1ccc(OCCN2CCCC2)cc1 |  | Active | 
